According to the supplement of paper PMC5908809:

Tests used:
Assay in all cases: relative IC50 (inflection point of fitted viability curve, relative to fitted max inhibition); higher = less sensitive
Settings in all cases: 72 h
KAI3 (IL-2 2.5 ng/mL) = tested on: KAI3 (IL-2 2.5 ng/mL)
Protocol: (§1)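 Drug sensitivity and resistance testing: 5 concentrations over a 10,000-fold range, 72 h at 37 °C, viability by CellTiter-Glo normalised to DMSO and benzethonium chloride controls. IC50 is the inflection point of a logistic fit (min fixed at 0, max fitted), so it is relative to the fitted maximal inhibition. Kept only where fitted max inhibition is at least 50%.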

NK-92 (IL-2 2.5 ng/mL) = tested on: NK-92 (IL-2 2.5 ng/mL)
Protocol: as §1

NKL (IL-2 2.5 ng/mL) = tested on: NKL (IL-2 2.5 ng/mL)
Protocol: as §1

DERL-7 (IL-2 2.5 ng/mL) = tested on: DERL-7 (IL-2 2.5 ng/mL)
Protocol: as §1

[1] = tested on: normal primary NK cells, pool 1 (3 donors), resting (IL-2 0 ng/mL)
Protocol: as §1

SNK-6 (IL-2 2.5 ng/mL) = tested on: SNK-6 (IL-2 2.5 ng/mL)
Protocol: as §1

[2] = tested on: normal primary NK cells, pool 3 (3 donors) (IL-2 2.5 ng/mL)
Protocol: as §1

KHYG-1 (IL-2 2.5 ng/mL) = tested on: KHYG-1 (IL-2 2.5 ng/mL)
Protocol: as §1

NK-YS (IL-2 2.5 ng/mL) = tested on: NK-YS (IL-2 2.5 ng/mL)
Protocol: as §1

[3] = tested on: normal primary NK cells, pool 2 (3 donors) (IL-2 2.5 ng/mL)
Protocol: as §1

YT (IL-2 2.5 ng/mL) = tested on: YT (IL-2 2.5 ng/mL)
Protocol: as §1

[4] = tested on: normal primary NK cells, pool 1 (3 donors) (IL-2 2.5 ng/mL)
Protocol: as §1

IMC-1 (IL-2 20 ng/mL) = tested on: IMC-1 (IL-2 20 ng/mL)
Protocol: as §1

Row | SMILES | relative IC50 (KAI3 (IL-2 2.5 ng/mL)) [nM] | relative IC50 (NK-92 (IL-2 2.5 ng/mL)) [nM] | relative IC50 (NKL (IL-2 2.5 ng/mL)) [nM] | relative IC50 (DERL-7 (IL-2 2.5 ng/mL)) [nM] | relative IC50 [1] [nM] | relative IC50 (SNK-6 (IL-2 2.5 ng/mL)) [nM] | relative IC50 [2] [nM] | relative IC50 (KHYG-1 (IL-2 2.5 ng/mL)) [nM] | relative IC50 (NK-YS (IL-2 2.5 ng/mL)) [nM] | relative IC50 [3] [nM] | relative IC50 (YT (IL-2 2.5 ng/mL)) [nM] | relative IC50 [4] [nM] | relative IC50 (IMC-1 (IL-2 20 ng/mL)) [nM]
1 | O=C(O)c1ccc2c(c1)nc(Nc1cccc(Cl)c1)c1ccncc12 [Silmitasertib] | 1780 | 3900 | 1850 | 2270 | 3780 | 3730 | 2040 | 2010 | 2170 | 2230 | 1650 | 1690 | 
2 | COc1ccc(-c2cc3c(C)nc(N)nc3n([C@H]3CC[C@H](OCCO)CC3)c2=O)cn1 | 163 | 84.6 | 264 | 41.3 | 514 | 1060 | 1510 | 476 | 344 | 951 | 116 | 939 | 4020
3 | S=C(NCc1ccc2c(c1)OCO2)N1CCN(c2ncnc3c2oc2ccccc23)CC1 [Amuvatinib] | 1480 | 911 | 815 | 521 | 1380 | 388 | 1760 | 1330 | 2060 | 1930 |  | 1570 | 
4 | CNNCc1ccc(C(=O)NC(C)C)cc1 [Procarbazine] | > 10000 | > 10000 | > 10000 | > 10000 |  |  | > 10000 | > 10000 | > 10000 | > 10000 | > 10000 | > 10000 | > 10000
5 | CCNC(=O)c1noc(-c2cc(C(C)C)c(O)cc2O)c1-c1ccc(CN2CCOCC2)cc1 [Luminespib] | 3.47 | 7.37 | 3.28 | 3.05 |  | 12.4 | 4.81 | 10.4 | 3.79 | 3.27 | 26.2 | 3.66 | 9.73
6 | CN[C@@H]1C[C@H]2O[C@@](C)([C@@H]1OC)n1c3ccccc3c3c4c(c5c6ccccc6n2c5c31)C(=O)N[C@H]4O [UCN-01] | 21.3 | 39.3 | 53.3 | 27 | 204 | 15.3 | 126 | 24.9 | 51.1 | 75.8 | 184 | 97.1 | 375
7 | O=NN(CCCl)C(=O)NC1CCCCC1 [Lomustine] |  | > 10000 | > 10000 | > 10000 |  |  | > 10000 |  |  | > 10000 |  | > 10000 | > 10000
8 | Cc1cc(OCc2nnc(SC3CCCC3)n2-c2cccnc2)ccc1-c1ccc(S(C)(=O)=O)cc1 [NMS-873] | 1270 | 506 | 488 | 1410 | 455 | 1440 | 1680 | 250 | 114 | 767 | 48.7 | 909 | 40.2
9 | Oc1c2ccccc2c2c3c(cccc13)N=N2 | 10600 | 4980 | 4960 | 2570 |  | 12200 |  | 9700 | 13200 |  |  | 11000 | 
10 | CC(C)(C)Cn1c(N)nc2ccc(-c3[nH]c(C(C)(C)C)nc3-c3ccc(F)cc3)nc21 [Ralimetinib] |  | 1960 | 1600 |  | 4000 |  |  |  |  |  | 2220 | 3570 | > 10000
11 | Cc1cc(Nc2cc(N3CCN(C)CC3)nc(/C=C/c3ccccc3)n2)n[nH]1 [ENMD-2076] | 256 | 901 | 503 | 497 | 1710 | 541 | 1970 | 482 | 293 | 1290 | 1360 | 1500 | 573
12 | COc1cc(Nc2c(C#N)cnc3cc(OCCCN4CCN(C)CC4)c(OC)cc23)c(Cl)cc1Cl [Bosutinib] | 1350 | 1620 | 3110 | 1320 | 850 | 3870 | 3450 | 1480 | 2980 | 1520 | 1950 | 1710 | 3640
13 | CCC/C=C/C=C/C(=O)O[C@H]1/C(=C/C(=O)OC)C[C@H]2C[C@H]([C@@H](C)O)OC(=O)C[C@H](O)C[C@@H]3C[C@H](OC(C)=O)C(C)(C)[C@](O)(C[C@@H]4C/C(=C/C(=O)OC)C[C@H](/C=C/C(C)(C)[C@]1(O)O2)O4)O3 [Bryostatin 1] |  | 0.23 | > 100 |  |  | 1 | > 100 | 0.13 |  | > 100 |  | > 100 | 0.28
14 | COc1ccc(-c2nc(N3CCOCC3)c3sc(CN(C)c4ncc(C(=O)NO)cn4)cc3n2)cn1 [CUDC-907] | < 1 | 2.64 | < 1 | 1.6 | 3.45 | 7.89 | 8.82 | 2.32 | 8.33 | 5.81 | 14.7 | 6.42 | 13
15 | CC[C@@]1(O)C(=O)OCc2c1cc1n(c2=O)Cc2cc3c(CN(C)C)c(O)ccc3nc2-1 [Topotecan] | 42 | 20.5 | 35 | 54.9 | 2880 | 40.2 | 1030 | 33.8 | 39.6 | 1320 | 52.5 | 772 | 30.8
16 | CCOc1cc2ncc(C#N)c(Nc3ccc(F)c(Cl)c3)c2cc1NC(=O)/C=C/CN(C)C [Pelitinib] | 260 | 510 | 475 | 293 | 459 | 103 | 429 | 382 | 820 | 260 | 496 | 300 | 966
17 | CC(C)C(=O)Nc1ccc([N+](=O)[O-])c(C(F)(F)F)c1 [Flutamide] | > 10000 |  |  |  |  |  |  | > 10000 |  |  |  | > 10000 | 
18 | O=C(NC1CCNCC1)c1n[nH]cc1NC(=O)c1c(Cl)cccc1Cl [AT7519] | 355 | 1270 | 204 | 356 | 400 | 307 | 381 | 753 | 236 | 319 | 424 | 265 | 317
19 | CC(C)C[C@H](NC(=O)[C@H](CCc1ccccc1)NC(=O)CN1CCOCC1)C(=O)N[C@@H](Cc1ccccc1)C(=O)N[C@@H](CC(C)C)C(=O)[C@@]1(C)CO1 [Carfilzomib] | 1.43 | 1.96 | 3.52 | 0.92 | 1.41 | 2.8 | 2.58 | 2.95 | 2.91 | 1.77 | 3.07 | 1.61 | 3.26
20 | CNC(=O)c1cc(Oc2ccc(NC(=O)Nc3ccc(Cl)c(C(F)(F)F)c3)cc2)ccn1 [Sorafenib] |  |  | > 1000 |  |  |  | > 1000 |  |  | > 1000 |  | > 1000 | > 1000
21 | COc1cc2c(cc1-c1c(C)noc1C)ncc1[nH]c(=O)n([C@H](C)c3ccccn3)c12 [I-BET151] | 848 |  | 375 | 306 | 1010 | 149 | 1850 | 606 | 707 | 1240 | 966 | 1040 | 2040
22 | C1=N/C2=N/c3ccc(OCCN4CCCC4)c(c3)COC/C=C/COCc3cccc(c3)C(=C1)N2 [Pacritinib] | 569 | 1220 | 777 | 560 | 838 | 1390 | 627 | 826 | 982 | 367 | 910 | 410 | 3880
23 | COc1cc(N2CCN(C)CC2)ccc1Nc1nccc(-c2cn(C)c3cnccc23)n1 [AZ191] | 2510 | 3940 | 2340 | 1650 | 4320 | 3570 | 3870 | 1890 | 2440 | 3700 |  | 3430 | 2910
